Experimental data as given in patent US4585773A, “Isoindolinyl-alkyl-piperazines” (Bristol-Myers Company, priority 1984, dated 1986).
Several values for one entry are separate records, joined by “and”; a condition that tells them apart may be missing. Identical values can stand only once. Counter-ions that a name gives are not always drawn. Like-named read-outs stand apart in the source and are kept apart here.

Tests used:
α1 = experiment: in vitro α1 binding, [3H]WB-4101 (Table IV)
Protocol: (§1) In this Example the compounds of Examples I-XI were tested in vitro for α1 and α2 binding. The compound of Example I was tested as its monochloride 2-propanolate hydrate, i.e. as C22 […] CLN4 O4 S .HCl.0.2(CH3)2 CHOH 0.15H2 O. In the testing specific brain tissues were prepared as sources of binding sites. Aliquots of the washed members are incubated with a low concentration of […]. After incubation at suitable temperature, the reaction mixture is treated to separate the membrane-bound radioligand Radioactivity is measured. Linear regression analysis of the probit value for the percent of binding occurring in the presence of varying concentrations of the compound of interest plotted against the concentration of the compound yields concentrations which inhibit 50% specific binding, the IC50. The assay buffer is 50 mM Hepes.KOH, pH 7.4. The ligand is [^3 H]WB-4101 from New England Nuclear for α1 and [^3 H]Clonidine from New England Nuclear for α2. The results are considered against phentolamine methanesulfonate (Reference) which is considered a good α-binder.

α2 = experiment: in vitro α2 binding, [3H]Clonidine (Table IV)
Protocol: as §1

[1] = conscious rat diuretic screen of Lipschitz (Table I); assay type: in vivo, rat (female Sprague Dawley; male Okamoto-Aoki); settings: female Sprague Dawley rats; for response vs control in vivo at 3 mg/kg / response vs control in vivo at 30 mg/kg: Rattus norvegicus, po
Protocol: With respect to diuretic utility there can be mentioned the conscious rat diuretic screen of Lipschitz, et al. (J. Pharmacol. Exp. Therap. 79, 97-110 (1943)). In this test, dose response assays of diuretic, natruiretic and kaliuretic activity are determined by oral administration of the test substance. The compounds synthesized in Examples I-XI were tested for diuretic […]. The compound of Example I was tested as its monohydrochloride 2-propanolate hydrate, i.e. as C22 […] ClN4 O4 S.HCl. 0.2(CH3)2 CHOH.0.15H2 O. Testing was carried out by the diuretic screen of Lipschitz, et al. described previously. In Table I below Volume Ratio is the ratio of total volume excreted for the test comuound compared to the total volume excreted for the control, Na^+ Ratio is the Na^+ excreted for the test compound compared to the Na^+ excreted for the control, K^+ Ratio is the K^+ excreted for the test compound compared to the K^+ excreted for the control. Female Sprague Dawley rats were used in Test Nos. 1, 2, 6, 7, 11-29. Male Okamoto-Aoki rats were used in Test Nos. 3-5 and 8-10 and testing for antihypertensive activity was carried out simultaneously on the Test Nos. 3-5 rats. In some instances, compounds were retested at the same dose level.

[2] = system: Spontaneously Hypertensive rat; experiment: antihypertensive activity, Spontaneously Hypertensive Rat (Table II); assay type: in vivo; settings: for ΔBP 2 hours / ΔBP 4 hours / ΔHR 2 hours / ΔHR 4 hours / peak change at 2 hours in ΔBP: SHR, 30 mg/kg oral; for antihypertensive effect (in words): conclusion from Table II (SHR, and DOCA for Examples I-IV)
Protocol: Spontaneously Hypertensive Rat Male rats weighing 300-400 g, previously conditioned to the procedure, are prewarmed in a heating chamber (30° C.) for 10-20 min. and subsequently restrained in a wire holder at that temperature. Systolic blood pressure and heart rate are measured by the tailcuff technique using a pneumatic pulse transducer and a biotachometer before, and 2, 4, and 24 hours after oral administration of vehicle (0.25% Methocel in water) or test compounds suspended in vehicle at a dose volume equivalent to 5 ml/kg. Blood pressure and heart rate data are reported as changes from zero-hour measurements with vehicle control groups run periodically to confirm that the vehicle has no effect. Testing was carried out on the compounds of Examples I-XII for antihypertensive activity. In the case of all the compounds testing was carried out on the Spontaneously Hypertensive rat as described hereinbefore. In the case of the compounds of Examples I-IV testing was also carried out on the DOCA-salt Hypertensive Rat. The compound of Example I was tested as its monochloride 2-propanolate hydrate, i.e. as C22 […] ClN4 O4 S.HCl.0.2(CH3)2 CHOH.0.15H2 O in Tests 1-5; and as the 3/4 mole hydrochloride, i.e. C22 […] ClN4 O4 S: 3/4 HCl in Tests 3a, 4a, 5a-5d. Test results are set forth in Table II below wherein SHR stands for Spontaneously Hypertensive rat, DOCA stands for DOCA-salt Hypertensive Rat, ΔBP stands for the change in systolic blood pressure in mm Hg, ΔHR stands for the change in mean heart rate in beats per minute and the times set forth are the times after dosing. A peak change in ΔBP of more than 20 is considered as indicating activity.

[3] = system: α blocking activity (phenylephrine); experiment: in vivo α blocking activity, phenylephrine (PE) as α-agonist (Table III); design: species or system rat; ED50: unit not given beside the values; settings: for in vivo α blocking activity (in words): conclusion from Table III
Protocol: In this example the compounds of Examples I (modified), II, III, V, VI, VII, VIII, IX and XI were tested in rats for in vivo α blocking activity according to methodology described at page 312 of Deitchman, et al., Journal of Pharmacological Methods, 3, 311-321 (1980). In this test phenylephrine (PE below) or norepinephrine (NE below) was administered as an α-agonist to the rats before and after dosing with the test drug and the average interpolated dose or PE/NE effecting a 50 mm Hg increase in mean arterial blood pressure was determined. Table III below records the results. In such Table, ED50 stands for such average interpolated dose and Average Dose Shift stands for the average ratio of ED50 after drug administration to ED50 before drug administration. The compound of Example I was tested as its monochloride 2-propanolate hydrate, i.e. as C22 H27 ClN4 O4 S.HCl 0.2(CH3)2 CHOH.0.15H2 O in Tests 1-5 and as the 3/4 mole hydrochloride, i.e. C22 H27 ClN 4 O4 S.3/4HCL in Tests 2a and 3a. The route was intravenous except in the case of the runs of Test Nos. 2a, 3, 3a, 26-29 the route was oral.

[4] = [3H]WB-4101, brain tissue, 50 mM Hepes.KOH, pH 7.4, read-out: α1 Binding IC50
[5] = [3H]Clonidine, brain tissue, 50 mM Hepes.KOH, pH 7.4, read-out: α2 Binding IC50
[6] = 3 mg/kg oral, read-out: K+ Ratio
[7] = 3 mg/kg oral, read-out: Na+ Ratio
[8] = 3 mg/kg oral, read-out: Volume Ratio
[9] = 30 mg/kg oral, read-out: K+ Ratio
[10] = 30 mg/kg oral, read-out: Na+ Ratio
[11] = 30 mg/kg oral, read-out: Volume Ratio
[12] = ED50 after/before drug, PE, dose 10, intravenous

| Structure (SMILES) | IC50 (α1; [4]) | IC50 (α2; [5]) | Urinary Na/K (Test Compound) ([1]; 3 mg/kg oral) | Urinary Na/K (Test Compound) ([1]; 30 mg/kg oral) | response vs control in vivo at 3 mg/kg [1, 6] | response vs control in vivo at 3 mg/kg [1, 7] | response vs control in vivo at 3 mg/kg [1, 8] | response vs control in vivo at 30 mg/kg [1, 9] | response vs control in vivo at 30 mg/kg [1, 10] | response vs control in vivo at 30 mg/kg [1, 11] | ΔBP 2 hours [2] | ΔBP 4 hours [2] | ΔHR 2 hours [2] | ΔHR 4 hours [2] | Average Dose Shift [3, 12] | in vivo α blocking activity (in words) [3] | Average Dose Shift ([3]; iv) | ED50 ([3]; iv) | antihypertensive effect (in words) [2] | other results |
| --- | --- | --- | --- | --- | --- | --- | --- | --- | --- | --- | --- | --- | --- | --- | --- | --- | --- | --- | --- | --- |
| Cl.N#Cc1cccnc1N1CCN(CCCN2Cc3cc(Cl)c(S(N)(=O)=O)cc3C2=O)CC1 [Example VI, 6-chloro-2-[3-[4-(3-cyano-2-pyridinyl)-1-piperazinyl]propyl]-2,3-dihydro-3-oxo-1H-isoindole-5-sulfonamide hydrochloride] | 0.305 µM | 3.33 µM | 3.55 | 3.90 | 98% | 169% | 153% | 111% | 204% | 174% | -17 ± 10 mm Hg | -7 ± 11 mm Hg | 6 ± 41 beats per minute | -10 ± 18 beats per minute | 27 ± 3 | active as in vivo α blockers | 3 ± 0.2 | 9.8 | – | – |
| COc1ccc(F)cc1N1CCN(CCCN2Cc3cc(Cl)c(S(N)(=O)=O)cc3C2=O)CC1 [Example XII, 6-chloro-2,3-dihydro-2-[3-[4-(3-fluoro-6-methoxyphenyl)-1-piperazinyl]propyl]-3-oxo-1H-isoindole-5-sulfonamide] | – | – | – | – | – | – | – | – | – | – | – | – | – | – | – | – | – | – | good antihypertensive effect without significantly affecting heart rate | peak change at 2 hours in ΔBP [2]: -64 mm Hg |
| Cc1ccc(N(CC2=NCCN2)c2cccc(O)c2)cc1 [phentolamine methanesulfonate, reference compound] | – | – | – | – | – | – | – | – | – | – | – | – | – | – | – | – | – | – | – | IC50 (α1; phentolamine methanesulfonate reference run in the α1 tests, read-out: Reference IC50): 0.00368 µM and 0.00347 µM and 0.00476 µM; IC50 (α2; phentolamine methanesulfonate reference run in the α2 tests, read-out: Reference IC50): 0.00545 µM and 0.00312 µM |
| NS(=O)(=O)c1cc2c(cc1Cl)CN(CCCN1CCN(C(=O)c3ccc(F)cc3)CC1)C2=O [Example VIII, 1-[3-[5-(Aminosulfonyl)-6-chloro-1,3-dihydro-3-oxo-2H-isoindol-2-yl]propyl]-4-(4-fluorobenzoyl)piperazine] | 144 µM | > 1 µM | 2.60 | 3.69 | 94% | 98% | 89% | 99% | 142% | 122% | -9 ± 5 mm Hg | -9 ± 4 mm Hg | 2 ± 15 beats per minute | 24 ± 15 beats per minute | 1 ± 0.1 | – | – | – | – | – |
| Cl.NS(=O)(=O)c1cc2c(cc1Cl)CN(CCCN1CCN(C(=O)c3ccccc3)CC1)C2=O.O [Example VII, 1-[3-[5-(aminosulfonyl)-6-chloro-1,3-dihydro-3-oxo-2H-isoindol-2-yl]propyl]-4-benzoylpiperazine hydrochloride monohydrate] | 152 µM | > 1 µM | 2.07 | 3.27 | 113% | 92% | 89% | 111% | 140% | 112% | -7 ± 8 mm Hg | -14 ± 3 mm Hg | -32 ± 14 beats per minute | -74 ± 24 beats per minute | > 1.0 | – | – | – | – | ED50 ([3]; ED50 of PE after test drug, dose 10, intravenous): 2.6 |

Second part, led by results:

| IC50 (α1; [4]) | IC50 (α2; [5]) | Structure (SMILES) | Urinary Na/K (Test Compound) ([1]; 3 mg/kg oral) | Urinary Na/K (Test Compound) ([1]; 30 mg/kg oral) | response vs control in vivo at 3 mg/kg [1, 6] | response vs control in vivo at 3 mg/kg [1, 7] | response vs control in vivo at 3 mg/kg [1, 8] | response vs control in vivo at 30 mg/kg [1, 9] | response vs control in vivo at 30 mg/kg [1, 10] | response vs control in vivo at 30 mg/kg [1, 11] | ΔBP 2 hours [2] | ΔBP 4 hours [2] | ΔHR 2 hours [2] | ΔHR 4 hours [2] | Average Dose Shift [3, 12] | in vivo α blocking activity (in words) [3] | Average Dose Shift ([3]; iv) | ED50 ([3]; iv) | antihypertensive effect (in words) [2] | other results |
| --- | --- | --- | --- | --- | --- | --- | --- | --- | --- | --- | --- | --- | --- | --- | --- | --- | --- | --- | --- | --- |
| 0.016 µM | 0.666 µM | Cl.NS(=O)(=O)c1cc2c(cc1Cl)CN(CCCN1CCN(c3ccccc3)CC1)C2=O.O [Example X, 6-chloro-2,3-dihydro-3-oxo-2-[3-(4-phenyl-1-piperazinyl)propyl]-1H-isoindole-5-sulfonamide hydrochloride hydrate] | 3.19 | 2.83 | 121% | 138% | 124% | 157% | 163% | 153% | – | – | – | – | – | active as in vivo α blockers | 13 ± 2 | 45.0 | good antihypertensive effect without significantly affecting heart rate | α2 binding activity (in words) (α2): α2 binding activity; peak change at 2 hours in ΔBP [2]: -34 mm Hg |
| 0.108 µM | > 1 µM | NS(=O)(=O)c1cc2c(cc1Cl)CN(CCCN1CCN(c3cccc(C(F)(F)F)c3)CC1)C2=O [Example IX, 6-chloro-2,3-dihydro-3-oxo-2-[3-[4-[3-(trifluoromethyl)phenyl]-1-piperazinyl]propyl]-1H-isoindole-5-sulfonamide hydrochloride hemihydrate] | 2.99 | 3.67 | 106% | 127% | 102% | 140% | 212% | 184% | -34 ± 14 mm Hg | -32 ± 10 mm Hg | 6 ± 17 beats per minute | 0 ± 14 beats per minute | 6 ± 0.6 | weakly active | 2.2 | 11.3 | good antihypertensive effect without significantly affecting heart rate | – |
